{"source": "patent US10070660B2", "about": "“Pet food palatability with antimicrobial properties based on organic acids” (KEMIN INDUSTRIES, INC., priority 2012, dated 2018)", "key": {"[1]": {"tested_on": "Salmonella (five Salmonella enterica serovars)", "assay": "Dog kibble challenge with dried five strain Salmonella cocktail inoculum", "format": "cell-based", "protocol": "One ml of each Salmonella culture was separately inoculated into a beaker containing tempered (ambient), sterilized MBM which was then incubated at 37° C. for 48 hours. Inoculated MBM was dispensed (approx. 200 g) into sterile 250 ml centrifuge bottles and centrifuged at 5,000 rpm for 10 minutes. The supernatant was decanted and autoclaved for disposal. The pellets were suspended in 10 ml TSB-20% glycerol. Suspensions (approximately 150-160 g) were transferred to sterilized 250 ml polycarbonate straight side wide mouth jars with lids (Nalgene, Thermo Scientific). Jars containing MBM-Salmonella suspensions were immediately frozen at −70° C. for 1 hour. Frozen MBM-Salmonella suspensions were lyophilized using a FreeZone-1 Liter benchtop freeze dry system (Labconco) (approx. 96 hours, −50° C.). Each lyophilized Salmonella culture was pulverized to a fine powder using a sterile mortar and pestle. Twenty g of each of the five lyophilized Salmonella cultures was combined in a sterile wide mouth glass jar to make the dried Salmonella cocktail inoculum. […] Solidified plates were incubated inverted at 37° C. for 16-18 hours. Visible colonies were counted and colony forming units per gram were calculated (CFU/g). […] Kibble and inoculum were mixed together for five minutes by hand in a plastic zip top bag, and allowed to rest for 1 hour prior to sampling. Coated, un-inoculated kibble was also included in the study and tested for Salmonella (direct plating and FDA BAM), total aerobic bacteria, mold and yeast counts, pH, percent moisture, and water activity. For each analysis time point challenged kibble was sampled in triplicate. Kibbles were stored at ambient temperature.\nChallenged kibble samples bags were mixed thoroughly, then 5.00 g (±0.01) was aseptically weighed into a sterile plastic bag and diluted with 45 ml sterile Phosphate Buffer (Butterfield) diluent (BPB) containing (g/l) KH2PO4 34.0, pH adjusted to 7.2 with 1N sodium hydroxide and homogenized using a Stomacher (Seward Stomacher 80) for 1 minute and serially diluted in BPB for plating. The plates are poured with tempered (45° C.) XLD agar. After solidification, plates were inverted and placed in an incubator (37° C.). Colonies were counted and CFU/g was calculated. The counts for each triplicate sample were averaged and expressed as log CFU/g. Those samples of which were below the detection limit of <10 CFU/g were assigned 0 log CFU/g for the purpose of statistical analysis. Analysis of Variance using the LSD separation of means method was performed to analyze the data using StatGraphics software (StatPoint Technologies, Inc. Warrenton, Va.).\nDry dog palatants were formulated with fumaric acid or SBS to deliver 0.5% acid to the surface of the kibble. The effect of each acid on Salmonella challenged on the surface of dog kibble was examined. Dog kibbles were challenged with dried five strain Salmonella cocktail inoculum.\nThe effect of each acid on Salmonella challenged on the surface of dog kibble was examined. Dog kibbles were challenged with dried five strain Salmonella cocktail inoculum prep."}, "[2]": {"tested_on": "Salmonella spp.", "assay": "Cat palatant solutions (15% w/v) challenged with liquid Salmonella spp. inoculum", "format": "cell-based, Salmonella enterica", "protocol": "In the Phase 3 experiment described below, solutions (15% w/v) of cat palatant samples were challenged with a “Low” concentration (1,000 CFU/ml) and a “High” concentration (1,000,000 CFU/ml) of a liquid Salmonella spp. inoculum in an effort to evaluate the antimicrobial effect of each palatant. Salmonella was enumerated from each palatant at three time points after challenge; immediately, 24 hours and 6 days.\nPreparation of palatant samples. Four samples of a cat palatant formulated with varying levels of fumaric acid (Table 6) were aseptically weighed in duplicate sterile 50 ml conical test tubes. To each test tube, 10 ml of sterile deionized water was added and mixed by vortex. The pH of a 5% (w/v) solution of each palatant was also measured (Table 6).\nFive Salmonella enterica serovars [S. enterica (ATTC® 51741™), Montevideo (ATCC® 8387™), Typhimurium (ATCC® 14028™), Senftenberg (ATCC® 43845™), Schwarzengrund (4012)] were kept as frozen stocks at −70° C. in Bacto™ Tryptic Soy Broth (TSB) with 20% (w/v) glycerol. One vial of each culture was thawed at room temperature and 0.100 ml was transferred to […] (pH 7.2) containing (g/l) pancreatic digest of casein: 17, enzymatic digest of soybean meal: 3, sodium chloride, 5, dipotassium phosphate: 2.5, dextrose, 2.5, then incubated at 37° C. for 24 hours on a platform shaker set at 190 rpm. One ml of each overnight culture was diluted in 9 ml 0.85% saline and enumerated using a Petroff Hauser Counting Chamber. Each culture was further diluted in 0.85% saline to obtain two concentrations of inoculum; 100,000 CFU/ml (Low) and 100,000,000 CFU/ml (High).\nOne hundred μl of each Low and High diluted Salmonella inoculum was pipetted into one of each duplicate palatant tubes to obtain one tube with 1,000 CFU/ml (Low) and one tube with […] (High). Samples were analyzed immediately after challenging, 24 hours and 6 days after storage at 25° C.\nEach tube of palatant was vortexed prior to serially diluting. Dilutions were pipetted into sterile petri plates. The plates were poured with tempered (45° C.) XLD agar. After solidification, plates were inverted and placed in an incubator (37° C.). Colonies were counted and CFU/ml was calculated. Detection limit of the method was 1 CFU/ml."}}}
{"compound": "O=C(O)/C=C/C(=O)O", "note": "[Fumaric Acid, fumaric acid]", "values": [{"measurement": "Salmonella", "setting": "[1]; Table 15, 0.50% on dog kibble, day 0", "result": "1.98 ± 0.14^Ca log CFU/g"}, {"measurement": "Salmonella", "setting": "[1]; Table 15, 0.50% on dog kibble, day 1", "result": "1.10 ± 0.10^Cb log CFU/g"}, {"measurement": "Salmonella", "setting": "[1]; Table 15, 0.50% on dog kibble, day 3", "result": "0.77 ± 0.39^Abc log CFU/g"}, {"measurement": "Salmonella", "setting": "[1]; Table 15, 0.50% on dog kibble, day 7", "result": "0.33 ± 0.33^Bcd log CFU/g"}, {"measurement": "Salmonella", "setting": "[1]; Table 15, 0.50% on dog kibble, day 9", "result": "0.33 ± 0.33^Bcd log CFU/g"}, {"measurement": "Salmonella", "setting": "[1]; Table 15, 0.50% on dog kibble, day 14", "result": "0.00 ± 0.00^Bd log CFU/g"}, {"measurement": "Salmonella", "setting": "[1]; Table 15, 0.50% on dog kibble, day 21", "result": "0.00 ± 0.00^Bd log CFU/g"}, {"measurement": "Salmonella", "setting": "[1]; Table 17, total of 0.5% acid on dog kibble, day 0", "result": "1.99 ± 0.22^CDa log CFU/g"}, {"measurement": "Salmonella", "setting": "[1]; Table 17, total of 0.5% acid on dog kibble, day 1", "result": "0.43 ± 0.43^Bb log CFU/g"}, {"measurement": "Salmonella", "setting": "[1]; Table 17, total of 0.5% acid on dog kibble, day 6", "result": "0.00 ± 0.00^Bb log CFU/g"}, {"measurement": "Salmonella", "setting": "[1]; Table 17, total of 0.5% acid on dog kibble, day 14", "result": "0.00 ± 0.00^Bb log CFU/g"}, {"measurement": "Salmonella", "setting": "[1]; Table 17, total of 0.5% acid on dog kibble, day 21", "result": "0.00 ± 0.00^Bb log CFU/g"}, {"measurement": "Salmonella counts on challenged dog kibble vs control palatant (in words)", "setting": "[1]; dog kibble challenge", "result": "significantly lower Salmonella counts than the control and SBS formula"}, {"measurement": "Salmonella counts", "setting": "[2]; High inoculation (1,000,000 CFU/ml), 14% fumaric, day 0", "result": "<1", "unit": "CFU/ml"}, {"measurement": "Salmonella counts", "setting": "[2]; High inoculation, 14% fumaric, day 1", "result": "<1", "unit": "CFU/ml"}, {"measurement": "Salmonella counts", "setting": "[2]; High inoculation, 14% fumaric, day 6", "result": "<1", "unit": "CFU/ml"}, {"measurement": "Salmonella counts", "setting": "[2]; High inoculation, 20% fumaric, day 0", "result": "<1", "unit": "CFU/ml"}, {"measurement": "Salmonella counts", "setting": "[2]; High inoculation, 20% fumaric, day 1", "result": "<1", "unit": "CFU/ml"}, {"measurement": "Salmonella counts", "setting": "[2]; High inoculation, 20% fumaric, day 6", "result": "<1", "unit": "CFU/ml"}, {"measurement": "Salmonella counts", "setting": "[2]; High inoculation, 27% fumaric, day 0", "result": "<1", "unit": "CFU/ml"}, {"measurement": "Salmonella counts", "setting": "[2]; High inoculation, 27% fumaric, day 1", "result": "<1", "unit": "CFU/ml"}, {"measurement": "Salmonella counts", "setting": "[2]; High inoculation, 27% fumaric, day 6", "result": "<1", "unit": "CFU/ml"}, {"measurement": "Salmonella counts", "setting": "[2]; Low inoculation (1,000 CFU/ml), 14% fumaric in palatant, day 0", "result": "<1", "unit": "CFU/ml"}, {"measurement": "Salmonella counts", "setting": "[2]; Low inoculation, 14% fumaric, day 1", "result": "<1", "unit": "CFU/ml"}, {"measurement": "Salmonella counts", "setting": "[2]; Low inoculation, 14% fumaric, day 6", "result": "<1", "unit": "CFU/ml"}, {"measurement": "Salmonella counts", "setting": "[2]; Low inoculation, 20% fumaric, day 0", "result": "<1", "unit": "CFU/ml"}, {"measurement": "Salmonella counts", "setting": "[2]; Low inoculation, 20% fumaric, day 1", "result": "<1", "unit": "CFU/ml"}, {"measurement": "Salmonella counts", "setting": "[2]; Low inoculation, 20% fumaric, day 6", "result": "<1", "unit": "CFU/ml"}, {"measurement": "Salmonella counts", "setting": "[2]; Low inoculation, 27% fumaric, day 0", "result": "<1", "unit": "CFU/ml"}, {"measurement": "Salmonella counts", "setting": "[2]; Low inoculation, 27% fumaric, day 1", "result": "<1", "unit": "CFU/ml"}, {"measurement": "Salmonella counts", "setting": "[2]; Low inoculation, 27% fumaric, day 6", "result": "<1", "unit": "CFU/ml"}]}
